The values that follow come from patent publication US20260014170A1, “PRODRUGS FOR DELIVERY OF TE[…] THE CENTRAL NERVOUS SYSTEM” (The Johns Hopkins University, priority 2022, published 2026).

Molecules are shown by their SMILES.

A short description of series [1]: In vitro metabolic stability in rat brain homogenates. The series is classed as in vitro ADME. The settings on record: 10 μM, 37° C., 0 hour to 1 hour, n=3. Here is the method: In vitro metabolic stability assessment was performed using brain homogenates. For the brain homogenates washed tissues were diluted 10-fold in 0.1-M potassium phosphate buffer and homogenized using a probe sonicator. […] Samples from each incubation at predetermined time points (0, 0.5, and 1h) were quenched with 3X volumes of acetonitrile containing the internal standard (IS; losartan: 0.5 μm). […] Disappearance of the intact compound and release of Testosterone were measured using liquid chromatography tandem mass spectrometry (LC-MS; full scan mode).
The metabolic stability of prodrugs (n=3) was evaluated using rat brain homogenates. The rat brain was homogenized using 100-mM phosphate buffer with 1:10 dilution (w/v). 10 μM concentration of the compounds was incubated at 37° C. and stability was evaluated from 0 hour to 1 hour. After incubation samples were precipitated using acetonitrile containing internal standard and quantified using high-resolution LC-MS/MS.

The conditions of series [2]: female rats, IN, 1.1 mg/kg equivalent of Testosterone, 1h post dose. Here is the method: All prodrugs were administered intranasally (IN) at a dose of 1.1 mg/kg equivalent of Testosterone using a formulation of 5% Tween-80, 5% DMSO and 90% PBS containing 10 mM HEPES. Blood and brain were collected after sacrificing the animals at predetermined time point. Plasma was harvested from blood by centrifugation at 3,000 RPM for 15 min and stored at −80° C. Brain tissues were harvested following blood collection and immediately snap frozen in liquid nitrogen and stored at −80° C. until LC-MS/MS analysis. Calibration standards were prepared using naïve female rat plasma or brain with additions of respective prodrugs. For quantifying the released testosterone in the pharmacokinetic samples, plasma samples (20 μL) were processed by protein precipitation method by addition of 200 μL of acetonitrile containing internal standard (losartan: 0.5 μM), followed by vortex-mixing for 30 s and then centrifugation at 10,000 RPM for 10 min at 4° C. Brain tissues were diluted 1:5 w/v with acetonitrile containing losartan (0.5 μm) and homogenized, followed by vortex-mixing and centrifugation at 10,000 RPM for 10 min at 4° C. A 50 μL aliquot of the supernatant was diluted with 50 μL of water and transferred to 250 μL polypropylene autosampler vials sealed with teflon caps. Then, 2 μL of the sample was injected into the LC-MS/MS system for analysis.
The in vivo pharmacokinetics of prodrugs (P1, P3, P4, P5, P6, P7, P8, P9, P10, P11, P12, P13 and P14) were evaluated in female rats.

As for `C[C@]12CC[C@H]3[C@@H](CCC4=CC(=O)CC[C@@]43C)[C@@H]1CC[C@@H]2OC(=O)CNC(=O)CN` [Prodrug P10, (8R,9S,10R,13S,14S,17S)-10,13-Dimethyl-3-oxo-2,3,6,7,8,9,10,11,12,13,14,15,16,17-tetradecahydro-1H-cyclopenta[α]phenanthren-17-yl glycylglycinate], the “stability in rat brain homogenate” value in series [1] was “moderately stable”.

Regarding `CN1CCN(CC(=O)O[C@H]2CC[C@H]3[C@@H]4CCC5=CC(=O)CC[C@]5(C)[C@H]4CC[C@]23C)CC1` [Prodrug P5, (8R,9S,10R,13S,14S,17S)-10,13-Dimethyl-3-oxo-2,3,6,7,8,9,10,11,12,13,14,15,16,17-tetradecahydro-1H-cyclopenta[α]phenanthren-17-yl 2-(4-methylpiperazin-1-yl)acetate], in series [1], the “stability in rat brain homogenate” value is given as “stable”. Further, the “levels of testosterone release” value in series [2] is reported as “low levels”.

As for `CN(C)CC(=O)O[C@H]1CC[C@H]2[C@@H]3CCC4=CC(=O)CC[C@]4(C)[C@H]3CC[C@]12C` [Prodrug P3, (8R,9S,10R,13S,14S,17S)-10,13-Dimethyl-3-oxo-2,3,6,7,8,9,10,11,12,13,14,15,16,17-tetradecahydro-1H-cyclopenta[α]phenanthren-17-yl dimethylglycinate], the “stability in rat brain homogenate” value in series [1] is reported as “moderately stable”. The “plasma levels compared with testosterone” value in series [2] is on record as “lower”.

Consider `CC(C)OC(=O)OCO[C@H]1CC[C@H]2[C@@H]3CCC4=CC(=O)CC[C@]4(C)[C@H]3CC[C@]12C` [Prodrug P1, (((8R,9S,10R,13S,14S,17S)-10,13-Dimethyl-3-oxo-2,3,6,7,8,9,10,11,12,13,14,15,16,17-tetradecahydro-1H-cyclopenta[α]phenanthren-17-yl)oxy)methyl isopropyl carbonate], for which the “stable in brain homogenate” value in series [1] is given as 20%. Also, in series [2], the “plasma levels compared with testosterone” value is on record as “lower”.

For `CC(C)[C@H](N)C(=O)N[C@@H](C(=O)O[C@H]1CC[C@H]2[C@@H]3CCC4=CC(=O)CC[C@]4(C)[C@H]3CC[C@]12C)C(C)C` [Prodrug P4, (8R,9S,10R,13S,14S,17S)-10,13-Dimethyl-3-oxo-2,3,6,7,8,9,10,11,12,13,14,15,16,17-tetradecahydro-1H-cyclopenta[α]phenanthren-17-yl L-valyl-D-valinate], the “levels of testosterone release” value in series [2] is reported as “low levels”.

Take `CC(C)C[C@H](NC(=O)CN(C)C)C(=O)O[C@H]1CC[C@H]2[C@@H]3CCC4=CC(=O)CC[C@]4(C)[C@H]3CC[C@]12C` [Prodrug P11, (8R,9S,10R,13S,14S,17S)-10,13-Dimethyl-3-oxo-2,3,6,7,8,9,10,11,12,13,14,15,16,17-tetradecahydro-1H-cyclopenta[α]phenanthren-17-yl dimethylglycyl-L-leucinate]: the “stability in rat brain homogenate” value in series [1] was “stable”.

`CN(C)CC(=O)NCC(=O)O[C@H]1CC[C@H]2[C@@H]3CCC4=CC(=O)CC[C@]4(C)[C@H]3CC[C@]12C` [Prodrug P8, (8R,9S,10R,13S,14S,17S)-10,13-Dimethyl-3-oxo-2,3,6,7,8,9,10,11,12,13,14,15,16,17-tetradecahydro-1H-cyclopenta[α]phenanthren-17-yl dimethylglycylglycinate]: the “stability in rat brain homogenate” value in series [1] was “stable”. The “levels of testosterone release” value in series [2] is reported as “low levels”.

With `C[C@]12CC[C@H]3[C@@H](CCC4=CC(=O)CC[C@@]43C)[C@@H]1CC[C@@H]2OC(=O)CC[C@H](N)C(=O)O` [Prodrug P14, (S)-2-Amino-5-(((8R,9S,10R,13S,14S,17S)-10,13-dimethyl-3-oxo-2,3,6,7,8,9,10,11,12,13,14,15,16,17-tetradecahydro-1H-cyclopenta[α]phenanthren-17-yl)oxy)-5-oxopentanoic acid], the “stability in rat brain homogenate” value in series [1] is reported as “stable”. Besides, in series [2], the “levels of testosterone release” value is “low levels”.

In the case of `C[C@]12CC[C@H]3[C@@H](CCC4=CC(=O)CC[C@@]43C)[C@@H]1CC[C@@H]2OC(=O)CN1CCOCC1` [Prodrug P6, (8R,9S,10R,13S,14S,17S)-10,13-Dimethyl-3-oxo-2,3,6,7,8,9,10,11,12,13,14,15,16,17-tetradecahydro-1H-cyclopenta[α]phenanthren-17-yl 2-morpholinoacetate], the “stability in rat brain homogenate” value in series [1] is “stable”. Further, in series [2], the “levels of testosterone release” value is “low levels”.

On to `CN(C)CC(=O)N[C@@H](Cc1ccccc1)C(=O)O[C@H]1CC[C@H]2[C@@H]3CCC4=CC(=O)CC[C@]4(C)[C@H]3CC[C@]12C` [Prodrug P12, (8R,9S,10R,13S,14S,17S)-10,13-Dimethyl-3-oxo-2,3,6,7,8,9,10,11,12,13,14,15,16,17-tetradecahydro-1H-cyclopenta[α]phenanthren-17-yl dimethylglycyl-L-phenylalaninate], for which the “stability in rat brain homogenate” value in series [1] is “stable”. In addition, the “plasma levels compared with testosterone” value in series [2] is on record as “lower”.

For the compound `CC(=O)N[C@@H](CCC(=O)O[C@H]1CC[C@H]2[C@@H]3CCC4=CC(=O)CC[C@]4(C)[C@H]3CC[C@]12C)C(=O)O` [Prodrug P13, (S)-2-Acetamido-5-(((8R,9S,10R,13S,14S,17S)-10,13-dimethyl-3-oxo-2,3,6,7,8,9,10,11,12,13,14,15,16,17-tetradecahydro-1H-cyclopenta[α]phenanthren-17-yl)oxy)-5-oxopentanoic acid], the “stability in rat brain homogenate” value in series [1] is listed as “stable”. Moreover, the “levels of testosterone release” value in series [2] is listed as “low levels”.

Regarding `C[C@]12CC[C@H]3[C@@H](CCC4=CC(=O)CC[C@@]43C)[C@@H]1CC[C@@H]2OC(=O)C(Cl)Cl` [Prodrug P7, (8R,9S,10R,13S,14S,17S)-10,13-Dimethyl-3-oxo-2,3,6,7,8,9,10,11,12,13,14,15,16,17-tetradecahydro-1H-cyclopenta[α]phenanthren-17-yl 2,2-dichloroacetate], the “stability in rat brain homogenate” value in series [1] was “moderately stable”.

On to `CN(C)CC(=O)NCC(=O)NCC(=O)O[C@H]1CC[C@H]2[C@@H]3CCC4=CC(=O)CC[C@]4(C)[C@H]3CC[C@]12C` [Prodrug P9, (8R,9S,10R,13S,14S,17S)-10,13-Dimethyl-3-oxo-2,3,6,7,8,9,10,11,12,13,14,15,16,17-tetradecahydro-1H-cyclopenta[α]phenanthren-17-yl dimethylglycylglycylglycinate], for which the “stability in rat brain homogenate” value in series [1] is “stable”.
